Assay results as given in US20100143277A1, “Skin Lightening Compositions with Acetylcholinesterase Inhibitors” (priority 2008, published 2010).
Values joined by “and” are separate entries in the source; they are usually repeats but may differ in a detail not shown here. Identical values can stand only once. Marks after values point to notes of the source that are not given here.

System: human epidermal melanocytes from dark human neonatal foreskin (HEMn-DP)
Experiment: Quantification of total melanin in cultured melanocytes after 72 hours treatment
Assay type: cell-based
Conditions: for Mean mg melanin/100K cells: mean of triplicate; for mg melanin/100K cells: single replicate well, normalized to cell number
Protocol: Monolayer cultures were initiated from cryopreserved cultures of human epidermal melanocytes from dark human neonatal foreskin (HEMn-DP; C-202-5C; Cascade Biologics™), according to the manufacturer's instructions. Cells were cultured in Medium 254 (M-254-500, Cascade Biologics) supplemented with Human Melanocyte Growth Supplement (HMGS; S-0002-5, Cascade Biologics). Stocks of these cultures were generated and stored in Sythn-a-Freeze® cryopreservation media (R-005-50. Cascade Biologics) in liquid nitrogen at passage 2.
For use in assays, cells were thawed according to manufacturer's instructions, and subcultured to increase cell numbers as required. Cells were then plated into 6-well plates at ˜200,000 cells per well and incubated at 37° C., 5% CO2, and were used in assays at passage 4.
Once the melanocytes had adhered to the 6-well plate's (approx. 4-6 hr.), the medium was replaced with Medium 254 containing Human Melanocyte Growth Supplement PMA-free (HMGS-2; S-016-5 hereafter termed depleted media) for approximately 16 hours, or overnight, prior to treatment with the actives.
To develop the screening assay a variety of cell concentrations and incubation times were tested to obtain optimized measurable levels of melanin. During this process no materials were applied to the cells. In addition a standard melanin (M8631, Sigma Aldrich) stock solution was prepared in Solvable™ reagent (5NE9100, Perkin Elmer) to obtain a standard curve for evaluating levels of melanin extracted from cells using a spectrophotometer. Method development was performed to obtain the optimum time required to solubilize the melanin into solution without degradation and a reduction in color.
All stocks of active materials were diluted in DMSO, ethanol or media, before further dilution in depleted media. Treatments were applied to the cells in 6-well plates in triplicate for 72 hours after which time the cells were harvested. Appropriate solvent controls in triplicate were incorporated into each assay.
After 72 hours, media was removed form the cells and the cells were washed once in Dulbecco's PBS. The PBS wash was removed and discarded and care being taken to ensure that all excess PBS was removed as far as possible. 1 mL trypsin-EDTA solution (R-001-100, Cascade Biologicsm) was added and cells incubated at room temperature for ˜1 minute. Microscopic observation was carried out to ensure all cells had detached from the plate. The resulting cell suspension was transferred to a 1.5 mL Eppendorf tube, 50 μL was removed for a cell count (Beckman coulter counter), and the remaining suspension was centrifuged at 13,000 rpm for 5 minutes. The supernatant was discarded and the cell pellets were frozen at −20° C.
The cell pellets were thawed at room temperature, and each pellet was re-suspended in 75 μL Solvable™ reagent (6NE9100, Perkin Elmer). Each tube was vortexed briefly, before incubating in a water bath at 60° C. for 1 hour. After the 1 hour incubation, each tube was vortexed and then centrifuged at 13,000 rpm for 15 minutes. The supernatant containing the extracted melanin was transferred to a 96 well plate and the absorbance at 490 nm recorded on a Dynex MRX-II plate reader.
Each ingredient was tested in triplicate and compared against the relevant vehicle control. The total amount of melanin extracted was calculated from a melanin standard curve. All resultant data was normalized to the total number of the cells in the sample. Data was subjected to the F-test for variance, followed by Student's t-test (assuming equal or unequal variance depending on results of the F-test.

**Q.** For `COc1ccc2c3c1O[C@H]1C[C@@H](O)C=C[C@@]31CCN(C)C2` [Galanthamine, galanthamine], which “Mean mg melanin/100K cells” value (0.1 μM) is on record?
**A.** 24.0^e mg melanin/100K cells

**Q.** What about the “mg melanin/100K cells” value (0.1 μM) of the same compound?
**A.** 21.2 mg melanin/100K cells and 26.7 mg melanin/100K cells and 23.9 mg melanin/100K cells

**Q.** And the “Mean mg melanin/100K cells” value (1 μM)?
**A.** 19.4^d mg melanin/100K cells

**Q.** And the “mg melanin/100K cells” value (1 μM)?
**A.** 21.0 mg melanin/100K cells and 18.6 mg melanin/100K cells and 18.5 mg melanin/100K cells

**Q.** What about the “Mean mg melanin/100K cells” value (10 μM) of the same compound?
**A.** 23.4^c mg melanin/100K cells

**Q.** And the “mg melanin/100K cells” value (10 μM)?
**A.** 23.3 mg melanin/100K cells and 23.7 mg melanin/100K cells and 23.0 mg melanin/100K cells
